One may read the IC50 as the concentration that inhibits the measured activity by half.

Human complement C1s enzyme, sequence (P09871 438-688 limits assumed): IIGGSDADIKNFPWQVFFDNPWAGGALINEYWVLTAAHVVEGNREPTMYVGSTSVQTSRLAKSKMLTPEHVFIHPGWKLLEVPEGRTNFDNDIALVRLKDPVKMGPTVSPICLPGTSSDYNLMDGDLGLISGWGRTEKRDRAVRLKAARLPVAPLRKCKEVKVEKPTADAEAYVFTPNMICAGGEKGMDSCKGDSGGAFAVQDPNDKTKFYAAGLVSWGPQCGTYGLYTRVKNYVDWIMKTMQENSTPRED
Human complement C1s enzyme, sequence (P09871 16-437 partner limits assumed): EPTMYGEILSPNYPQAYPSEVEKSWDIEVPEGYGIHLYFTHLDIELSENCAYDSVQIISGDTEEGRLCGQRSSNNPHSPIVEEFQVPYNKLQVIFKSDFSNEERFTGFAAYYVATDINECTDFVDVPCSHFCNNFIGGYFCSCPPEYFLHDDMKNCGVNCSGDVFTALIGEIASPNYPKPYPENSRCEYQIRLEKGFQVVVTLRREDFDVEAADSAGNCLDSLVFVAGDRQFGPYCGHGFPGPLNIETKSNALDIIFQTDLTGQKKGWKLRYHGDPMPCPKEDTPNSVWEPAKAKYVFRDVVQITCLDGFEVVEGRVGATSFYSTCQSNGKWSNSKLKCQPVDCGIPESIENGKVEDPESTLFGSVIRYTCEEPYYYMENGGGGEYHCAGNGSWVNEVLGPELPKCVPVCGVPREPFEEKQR

This experiment addresses Human complement C1s enzyme (Homo sapiens (Human), UniProt P09871). The experiment in a line: Human C1s enzyme assay. Type of experiment: biochemical. As to conditions: Human complement C1s enzyme 1.16 nM, substrate Z-L-Lys-SBzl 100 μM, assay of Example 3; read-out: IC50 (Stars). Put shortly: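 IC50 derived by nonlinear regression of rate versus concentration, with rate taken from A405 kinetics (30 s intervals, 30 min) after adding 100 μM each Z-L-Lys-SBzl and DTNB. C1s from human serum, 1.16 nM, exposed to compound for 5 min at RT beforehand; buffer 50 mM Tris, 1 M NaCl, pH 7.5.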
`C[C@@H](NC(=O)[C@@H]1C[C@H](c2ccncc2)CN1C(=O)CNC(=O)c1ccc2c(c1)-c1ccccc1C2(F)F)c1cc(C(=N)N)cs1` [Compound 370, (2S,4R)—N—((R)-1-(4-carbamimidoylthiophen-2-yl)ethyl)-1-((9,9-difluoro-9H-fluorene-3-carbonyl)glycyl)-4-(pyridin-4-yl)pyrrolidine-2-carboxamide]: the IC50 is less than 100 nM.
In the case of `CC1c2ccccc2-c2ccc(C(=O)NCC(=O)N3C[C@@](F)(CF)C[C@H]3C(=O)N[C@H](C)c3cc(C(=N)N)cs3)cc21` (stereo partly drawn) [Compound 371, (2S,4R)—N—((R)-1-(4-carbamimidoylthiophen-2-yl)ethyl)-4-fluoro-4-(fluoromethyl)-1-((9-methyl-9H-fluorene-2-carbonyl)glycyl)pyrrolidine-2-carboxamide] it was less than 100 nM; in that of `C[C@@H](NC(=O)[C@@H]1C[C@](F)(CF)CN1C(=O)CNC(=O)c1ccc2c(c1)oc1ccccc12)c1cc(C(=N)N)cs1` [Compound 372, (2S,4R)—N—((R)-1-(4-carbamimidoylthiophen-2-yl)ethyl)-1-((dibenzo[b,d]furan-3-carbonyl)glycyl)-4-fluoro-4-(fluoromethyl)pyrrolidine-2-carboxamide], less than 100 nM; in that of `COC[C@@]1(F)C[C@@H](C(=O)N[C@H](C)c2cc(C(=N)N)cs2)N(C(=O)CNC(=O)c2ccc3c(c2)Oc2ccccc2S3)C1` [Compound 373, (2S,4R)—N—((R)-1-(4-carbamimidoylthiophen-2-yl)ethyl)-4-fluoro-4-(methoxymethyl)-1-((phenoxathiine-3-carbonyl)glycyl)pyrrolidine-2-carboxamide], less than 100 nM.
With `C[C@@H](NC(=O)[C@@H]1CC2(CN1C(=O)CNC(=O)c1ccc3c(c1)[nH]c1ccccc13)OCCO2)c1cc(C(=N)N)cs1` [Compound 374, (S)-7-((9H-carbazole-2-carbonyl)glycyl)-N—((R)-1-(4-carbamimidoylthiophen-2-yl)ethyl)-1,4-dioxa-7-azaspiro[4.4]nonane-8-carboxamide], the IC50 was less than 100 nM.
For `C[C@@H](NC(=O)[C@@H]1C[C@](F)(CF)CN1C(=O)CNC(=O)c1ccc2c(c1)S(=O)(=O)c1ccccc1-2)c1cc(C(=N)N)cs1` [Compound 375, (2S,4R)—N—((R)-1-(4-carbamimidoylthiophen-2-yl)ethyl)-1-((5,5-dioxidodibenzo[b,d]thiophene-3-carbonyl)glycyl)-4-fluoro-4-(fluoromethyl)pyrrolidine-2-carboxamide], the IC50 was less than 100 nM.
Regarding `N=C(N)c1csc([C@@H](CO)NC(=O)[C@@H]2CC3(CN2C(=O)CNC(=O)c2ccc4c(c2)-c2ccccc2C4(F)F)OCCO3)c1` [Compound 376, (S)—N—((R)-1-(4-carbamimidoylthiophen-2-yl)-2-hydroxyethyl)-7-((9,9-difluoro-9H-fluorene-3-carbonyl)glycyl)-1,4-dioxa-7-azaspiro [4.4]nonane-8-carboxamide], the IC50 is less than 100 nM.
The result for `C[C@@H](NC(=O)[C@@H]1C[C@@H](c2ccncc2)CN1C(=O)CNC(=O)c1ccc2c(c1)-c1ccccc1C2(F)F)c1cc(C(=N)N)cs1` [Compound 377, (2S,4S)—N—((R)-1-(4-carbamimidoylthiophen-2-yl)ethyl)-1-((9,9-difluoro-9H-fluorene-3-carbonyl)glycyl)-4-(pyridin-4-yl)pyrrolidine-2-carboxamide] reads less than 100 nM; that for `C[C@@H](NC(=O)[C@@H]1C[C@@H](S(C)(=O)=O)CN1C(=O)CNC(=O)c1ccc2c(c1)sc1ccccc12)c1cc(C(=N)N)cs1` [Compound 378, (2S,4R)—N—((R)-1-(4-carbamimidoylthiophen-2-yl)ethyl)-1-((dibenzo[b,d]thiophene-3-carbonyl)glycyl)-4-(methylsulfonyl)pyrrolidine-2-carboxamide], less than 100 nM.
In the case of `C[C@@H](NC(=O)[C@@H]1C[C@@H](S(C)(=O)=O)CN1C(=O)CNC(=O)c1ccc2c(c1)oc1ccccc12)c1cc(C(=N)N)cs1` [Compound 379, (2S,4R)—N—((R)-1-(4-carbamimidoylthiophen-2-yl)ethyl)-1-((dibenzo[b,d]furan-3-carbonyl)glycyl)-4-(methylsulfonyl)pyrrolidine-2-carboxamide] it was less than 100 nM; in that of `CC1(C)c2ccccc2-c2cc(C(=O)NCC(=O)N3C[C@H](S(C)(=O)=O)C[C@H]3C(=O)N[C@H](CO)c3cc(C(=N)N)cs3)ccc21` [Compound 380, (2S,4R)—N—((R)-1-(4-carbamimidoylthiophen-2-yl)-2-hydroxyethyl)-1-((9,9-dimethyl-9H-fluorene-3-carbonyl)glycyl)-4-(methylsulfonyl) pyrrolidine-2-carboxamide], less than 100 nM; in that of `C[C@@H](NC(=O)[C@@H]1C[C@@H](S(C)(=O)=O)CN1C(=O)CNC(=O)c1ccc2c(c1)S(=O)(=O)c1ccccc1-2)c1cc(C(=N)N)cs1` [Compound 381, (2S,4R)—N—((R)-1-(4-carbamimidoylthiophen-2-yl)ethyl)-1-((5,5-dioxidodibenzo[b,d]thiophene-3-carbonyl)glycyl)-4-(methylsulfonyl) pyrrolidine-2-carboxamide], less than 100 nM.
In the case of `C[C@@H](NC(=O)[C@@H]1C[C@]2(COCCCN)C[C@@H]2N1C(=O)CNC(=O)c1ccc2c(c1)-c1ccccc1C2(F)F)c1cc(C(=N)N)cs1` [Compound 382, (1S,3S,5R)-5-((3-aminopropoxy)methyl)-N—((R)-1-(4-carbamimidoylthiophen-2-yl)ethyl)-2-((9,9-difluoro-9H-fluorene-3-carbonyl)glycyl)-2-azabicyclo[3.1.0]hexane-3-carboxamide], the IC50 is less than 100 nM.
As to `CS(=O)(=O)[C@@H]1C[C@@H](C(=O)N[C@H](CO)c2cc(C(=N)N)cs2)N(C(=O)CNC(=O)c2ncc(-c3ccccc3)cc2F)C1` [Compound 383, N-(2-((2S,4R)-2-(((R)-1-(4-carbamimidoylthiophen-2-yl)-2-hydroxyethyl)carbamoyl)-4-(methylsulfonyl)pyrrolidin-1-yl)-2-oxoethyl)-3-fluoro-5-phenylpicolinamide], the IC50 was less than 100 nM.
With `O=C(NCC(=O)N1CC2(C[C@H]1C(=O)NCc1ccn[nH]1)OCCO2)c1ccc(Oc2ccccc2)cc1` [Compound 384, (S)-N-((1H-pyrazol-5-yl)methyl)-7-((4-phenoxybenzoyl)glycyl)-1,4-dioxa-7-azaspiro[4.4]nonane-8-carboxamide], the IC50 was greater than 1000 nM.
In the case of `C[C@@H](NC(=O)[C@@H]1C[C@@H](OC(F)F)CN1C(=O)CN1Cc2cc(-c3ccccc3)ccc2C1=O)c1cc(C(=N)N)cs1` [Compound 385, (2S,4R)—N—((R)-1-(4-carbamimidoylthiophen-2-yl)ethyl)-4-(difluoromethoxy)-1-(2-(1-oxo-5-phenylisoindolin-2-yl)acetyl)pyrrolidine-2-carboxamide] it was less than 100 nM; in that of `C[C@@H](NC(=O)[C@@H]1CC2(CN1C(=O)CN1Cc3ccc(-c4ccccc4)cc3C1=O)OCCO2)c1cc(C(=N)N)cs1` [Compound 386, (S)—N—((R)-1-(4-carbamimidoylthiophen-2-yl)ethyl)-7-(2-(1-oxo-6-phenylisoindolin-2-yl)acetyl)-1,4-dioxa-7-azaspiro[4.4]nonane-8-carboxamide], less than 100 nM; in that of `C[C@@]12C[C@@H]1N(C(=O)CNC(=O)c1ccc(Oc3ccccc3)cc1)[C@H](C(=O)NCc1cccc(Cl)c1Cl)C2` [Compound 387, (1S,3S,5S)—N-(2,3-dichlorobenzyl)-5-methyl-2-((4-phenoxybenzoyl)glycyl)-2-azabicyclo[3.1.0]hexane-3-carboxamide], greater than 1000 nM.
In the case of `Cc1ccc(-c2cnc(C(=O)NCC(=O)N3CC4(C[C@H]3C(=O)N[C@H](C)c3cc(C(=N)N)cs3)OCCO4)c(F)c2)cc1` [Compound 388, (S)—N—((R)-1-(4-carbamimidoylthiophen-2-yl)ethyl)-7-((3-fluoro-5-(p-tolyl)picolinoyl)glycyl)-1,4-dioxa-7-azaspiro[4.4]nonane-8-carboxamide] it was less than 100 nM; in that of `COC[C@@]1(F)C[C@@H](C(=O)N[C@H](C)c2cc(C(=N)N)cs2)N(C(=O)CNC(=O)c2ccc3[nH]c4ccccc4c3c2)C1` [Compound 389, N-(2-((2S,4R)-2-(((R)-1-(4-carbamimidoylthiophen-2-yl)ethyl)carbamoyl)-4-fluoro-4-(methoxymethyl)pyrrolidin-1-yl)-2-oxoethyl)-9H-carbazole-3-carboxamide], less than 100 nM.
`CC1c2ccccc2-c2ccc(C(=O)NCC(=O)N3C[C@H](S(C)(=O)=O)C[C@H]3C(=O)N[C@H](C)c3cc(C(=N)N)cs3)cc21` (stereo partly drawn) [Compound 390, (2S,4R)—N—((R)-1-(4-carbamimidoylthiophen-2-yl)ethyl)-1-((9-methyl-9H-fluorene-2-carbonyl)glycyl)-4-(methylsulfonyl)pyrrolidine-2-carboxamide]: the IC50 was less than 100 nM.
The result for `C[C@@H](NC(=O)[C@@H]1CC2(CN1C(=O)CNC(=O)c1ccc3nc4ccccc4cc3c1)OCCO2)c1cc(C(=N)N)cs1` [Compound 391, (S)-7-((acridine-2-carbonyl)glycyl)-N—((R)-1-(4-carbamimidoylthiophen-2-yl)ethyl)-1,4-dioxa-7-azaspiro[4.4]nonane-8-carboxamide] reads less than 100 nM.
The result for `C[C@@H](NC(=O)[C@@H]1C[C@@H](S(C)(=O)=O)CN1C(=O)CNC(=O)c1ccc2c(c1)-c1ccccc1C2OC(F)F)c1cc(C(=N)N)cs1` (stereo partly drawn) [Compound 392, (2S,4R)—N—((R)-1-(4-carbamimidoylthiophen-2-yl)ethyl)-1-((9-(difluoromethoxy)-9H-fluorene-3-carbonyl)glycyl)-4-(methylsulfonyl)pyrrolidine-2-carboxamide] reads less than 100 nM.
Regarding `COC[C@@]1(F)C[C@@H](C(=O)N[C@H](C)c2cc(C(=N)N)cs2)N(C(=O)CNC(=O)c2ccc3c(c2)-c2ccccc2S3(=O)=O)C1` [Compound 393, (2S,4R)—N—((R)-1-(4-carbamimidoylthiophen-2-yl)ethyl)-1-((5,5-dioxidodibenzo[b,d]thiophene-2-carbonyl)glycyl)-4-fluoro-4-(methoxymethyl) pyrrolidine-2-carboxamide], the IC50 is less than 100 nM.
